Experimental data from BindingDB's records for doi:10.7270/Q2V986KM (Burnham Center For Chemical Genomics, 2011).

molecular target: T1, Carboxy-terminal domain RNA polymerase II polypeptide A small phosphatase 1 (Homo sapiens, UniProt Q9GZU7); assay: CTDSP1 inhibitors, concentration-response, biochemical, absorbance-based, ultra-high-throughput screen actives (AID 540297)
T1 sequence (Q9GZU7 whole entry): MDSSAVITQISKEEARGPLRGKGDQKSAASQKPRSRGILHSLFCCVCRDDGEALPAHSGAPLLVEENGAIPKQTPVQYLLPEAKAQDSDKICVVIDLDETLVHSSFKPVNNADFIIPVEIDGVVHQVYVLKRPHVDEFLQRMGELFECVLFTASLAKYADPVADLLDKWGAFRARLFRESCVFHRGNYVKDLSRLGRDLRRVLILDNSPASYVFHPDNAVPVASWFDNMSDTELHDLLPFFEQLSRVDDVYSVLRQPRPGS

Compound | IC50 [µM]
Cc1cccc(C(=O)/N=c2\c(C#N)cc3c(=O)n4cccc(C)c4nc3n2Cc2ccco2)c1 [N-[3-cyano-1-(furan-2-ylmethyl)-10-methyl-5-oxodipyrido[3,4-c:1',2'-f]pyrimidin-2-ylidene]-3-methylbenzamide] | 5.58
Cc1ccc2c(c1)=C(NNC(=O)c1ccc(NS(=O)(=O)c3cccs3)cc1)C(=O)N=2 [N-[4-[[(5-methyl-2-oxoindol-3-yl)amino]carbamoyl]phenyl]thiophene-2-sulfonamide] | 11.5
O=C(NN=C/C=C/c1ccccc1)c1cc2c(ccc3ccccc32)o1 [N-[[(E)-3-phenylprop-2-enylidene]amino]-2-benzo[e]benzofurancarboxamide] | 1.72
O=C(NN=C/C=C\c1ccco1)c1ccccn1 [Pyridine-2-carboxylic acid [(Z)-3-furan-2-yl-prop-2-en-(E)-ylidene]-hydrazide] | 14.5
Cc1ccc(OCC(=O)N/N=C/c2ccc(O)c([N+](=O)[O-])c2)c([N+](=O)[O-])c1 [SMR000312577] | 8.42
COc1ccc(CN=Nc2nc(O)c(CC(=O)O)s2)cc1OCc1ccc(Cl)cc1Cl [[2-({3-[(2,4-dichlorobenzyl)oxy]-4-methoxybenzylidene}hydrazono)-4-oxo-1,3-thiazolidin-5-yl]acetic acid] | 4.48
COc1ccc(/C=C/C(=O)Oc2cccc(C=NNC(=O)c3cccc(F)c3)c2)cc1 [[3-[[(3-fluorobenzoyl)hydrazinylidene]methyl]phenyl] (E)-3-(4-methoxyphenyl)prop-2-enoate] | 12.8

The remaining lines, values ahead:

IC50 [µM] | Compound
4.83 | C/C(C=NNC(=O)c1ccc(Br)cc1)=C\c1ccccc1 [SMR000140417]
6.07 | Cc1ccc(-n2[nH]c(C)c(CN=Nc3ccc([N+](=O)[O-])cc3[N+](=O)[O-])c2=O)cc1 [SMR000171521]
5.96 | C[N+]1=C(CC=Nc2ccccc2Cl)C(C)(C)c2ccccc21 [SMR000173746]
5.67 | O=c1cc(O)[n+]2nc(-c3ccc([N+](=O)[O-])cc3)sc2[n-]1 [SMR000175134]
12.9 | Cc1ccc(-c2csc(-c3c(O)cn(NC(=O)c4ccco4)c3N)n2)cc1 [SMR000363171]
36.1 | O=C1C=CC(/C=C/c2nc(O)c([N+](=O)[O-])c(=O)[nH]2)C=C1O (configuration not stated) [SMR000524347]
4.04 | O=C(CSc1nc(O)cc(=O)[nH]1)Nc1ccccc1[N+](=O)[O-] [SMR000620617]
3.46 | COc1cccc(N/C(C)=[N+](\C)CCNS(=O)(=O)c2ccc(Cl)cc2)c1 [SMR000672481]
8.6 | O=C(NN=C/C(Cl)=C/c1ccccc1)c1ccc2c(c1)OCO2 [SMR001240783]
3.51 | CCOc1ccc(CN=Nc2ccc(S(=O)(=O)Nc3ccccc3C(=O)O)cc2[N+](=O)[O-])cc1OC [SMR001308940]
